# Results taken from patent US7169580B1, “Protein having PGE2 synthase activity and use thereof” (Chugai Seiyaku Kabushiki Kaisha, priority 2000, dated 2007).
# Changes are numbered by the printed parent chain. “Also recorded” adds a separate entry of the source.
# How the values were obtained:
# Format in all cases: biochemical
# PGES-2 = biological target: T1, PGES-2 (Homo sapiens, UniProt O14684); test: PGES activity in HEK293 cells transfected with PGES-2; details: HEK293 cells transfected with PGES-2, coexistence of CDNB
# T1 construct: expressed in transfected cells; host or cells: HEK293
# T1 sequence (O14684 1-152): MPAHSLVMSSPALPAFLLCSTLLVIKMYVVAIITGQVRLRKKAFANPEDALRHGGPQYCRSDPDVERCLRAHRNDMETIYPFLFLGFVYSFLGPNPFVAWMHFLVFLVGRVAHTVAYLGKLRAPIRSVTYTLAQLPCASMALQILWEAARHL
# Experimental: (§1) PGES activity was measured as follows: Cells suspended in 20 mmol/L Tris-hydrochloride buffer (pH 7.4) were homogenized using ultrasonic homogenizer (Branson Sonifier Model 200) and centrifuged at 800×g for 5 minutes at 4° C., and the supernatant was used as the cell lysate in the following. 0.5 μg of PGH2 was added to the lysate, which was suspended with 0.1 mol/L Tris-hydrochloride buffer (pH 8.0) containing 1 mmol/L GSH, with a protein content of 10 μg, was incubated for 30 seconds at 24° C., and then 8 mmol/L FeCl2 was added to terminate the reaction. The amount of produced PGE2 was measured by Enzyme Immunoassay Kit (Cayman), and PGES activity was expressed as the amount of PGE2 produced per 30 seconds, per 10 μg of protein (ng/30 sec/10 μg protein).
# PGES-1 = biological target: T2, PGES-1 (Homo sapiens, UniProt Q15185); test: PGES activity in lysate of HEK293 cells transfected with PGES-1 cDNA; details: lysate of HEK293 cells transfected with PGES-1, coexistence of CDNB
# T2 construct: the cDNA of full-length human progesterone receptor complex component protein p23 was isolated by RT-PCR; expressed in transfected cells; host or cells: HEK293
# T2 sequence (Q15185 1-160): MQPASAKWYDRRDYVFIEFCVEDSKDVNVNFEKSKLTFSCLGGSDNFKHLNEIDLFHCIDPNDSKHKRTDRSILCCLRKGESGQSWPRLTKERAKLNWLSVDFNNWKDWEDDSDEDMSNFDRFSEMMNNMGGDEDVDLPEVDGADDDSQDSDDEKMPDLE
# Experimental: as §1
# Peptide mapping of PGES-1 protein was carried out using V8 protease, and 3 fragments among the peptide fragments were analyzed by N-terminal amino acid sequence analyzer to determine the partial amino acid sequence thereof. According to GenBank database search with one of these amino acid sequences, the sequence completely matched to a portion of a known sequence reported as the human progesterone receptor complex component protein p23 (Johnson, J L et al., Mol. Cell. Biol., 14:1956–63, 1994). […] Thus, the cDNA was confirmed to encode the desired PGES.
# [1] = biological target: T3, PGES activity of peak C (PGES-1) (Rattus norvegicus, UniProt P83868); test: PGES activity of Superdex 200 gel filtration fractions of rat brain soluble fraction; details: Superdex 200 peak C (approximately 50 kDa), in contrast to peaks A and B
# T3 construct: from tissue; host or cells: brain of LPS-administered rat: 100,000 x g supernatant, 60-80% ammonium sulfate, DEAE-Sephacel, Superdex 200 peak C
# T3 sequence (P83868 1-160): T2 sequence (Q15185 1-160) with N128D, N129H
# Experimental: as §1
# 150 μg/kg body LPS (Salmonella minnesota: Re595) was administered intravenously from rat tail. Rat brain was removed 2 days after the injection and was homogenized using Potter's homogenizer at 4° C. […]
# A protein of a molecular weight of about 27 kDa, corresponding with the PGES activity (PGES-1), was obtained by SDS electrophoretic analysis of peak C (FIG. 3, bottom). The production of this protein was predicted to elevate in response to inflammatory stimulus due to the fact that large amount of the protein was detected in LPS-administered rats than in normal rats.
structure (smiles),measurement,setting,value
"O=[N+]([O-])c1ccc(Cl)c([N+](=O)[O-])c1 [CDNB, 1-chloro-2,4-dinitrobenzene]",effect of CDNB on GSH-dependent PGES activity of recombinant PGES-2,PGES-2,CDNB insensitive; also recorded: not suppressed
same,effect of CDNB on GSH-dependent PGES activity of recombinant PGES-1,PGES-1,CDNB sensitive; also recorded: suppressed
same,effect of CDNB on PGES activity of peak C,[1],strongly inhibited
